In patent US11168073B2, “3,3-difluoroallylamines or salts thereof and pharmaceutical compositions comprising the same” (YUHAN CORPORATION, priority 2018, dated 2021) one finds IC50 data, which are given here for nine molecules.

Structures can show the parent of a compound that is named as a salt. Where two headings read alike, the source gives them in different places.

Holding throughout (assay type): biochemical
In assay [1] the target is T1, recombinant human VAP-1 (Homo sapiens, UniProt Q16853).
T1 construct: purchased R&D systems
T1 sequence (Q16853 1-763): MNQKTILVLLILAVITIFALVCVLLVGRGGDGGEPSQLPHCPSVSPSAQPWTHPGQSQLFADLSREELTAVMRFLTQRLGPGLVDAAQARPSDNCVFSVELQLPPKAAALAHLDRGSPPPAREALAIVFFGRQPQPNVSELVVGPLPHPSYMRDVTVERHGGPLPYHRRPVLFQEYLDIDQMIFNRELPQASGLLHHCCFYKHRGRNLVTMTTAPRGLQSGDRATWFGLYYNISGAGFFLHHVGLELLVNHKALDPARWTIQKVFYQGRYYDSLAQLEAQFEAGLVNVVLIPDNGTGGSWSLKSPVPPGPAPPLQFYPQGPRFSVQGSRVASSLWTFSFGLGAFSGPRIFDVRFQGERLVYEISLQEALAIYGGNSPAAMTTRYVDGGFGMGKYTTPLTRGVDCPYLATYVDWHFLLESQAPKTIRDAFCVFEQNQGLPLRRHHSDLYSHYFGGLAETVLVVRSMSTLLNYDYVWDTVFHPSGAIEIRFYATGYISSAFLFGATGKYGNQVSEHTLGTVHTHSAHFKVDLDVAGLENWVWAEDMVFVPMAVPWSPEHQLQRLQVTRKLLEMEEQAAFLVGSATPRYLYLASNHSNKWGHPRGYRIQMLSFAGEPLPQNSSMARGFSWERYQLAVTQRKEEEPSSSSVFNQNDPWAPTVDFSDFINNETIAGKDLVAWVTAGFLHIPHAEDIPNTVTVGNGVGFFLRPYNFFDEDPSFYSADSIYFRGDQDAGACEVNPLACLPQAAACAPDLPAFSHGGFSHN
Briefly: Activity evaluation on recombinant human VAP-1 (Amplex Red/HRP-coupled hydrogen peroxide assay, benzylamine substrate). The settings on record: read-out: Inhibitory Activity (IC50, nM) human VAP-1. Put shortly:
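Hydrogen peroxide from benzylamine (1 mM) oxidation by human recombinant VAP-1 detected via HRP-coupled Amplex Red (200 uM) fluorescence, kinetic over 1–2 h. Enzyme and compound preincubated 30 min at 37 °C, pH 7.4 phosphate; 8-point dose response, signal-rate decrease versus DMSO control fitted to four-parameter logistic for IC50.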

Assay [2] has as its target T2, recombinant human MAO-A (monoamine oxidase-A) (Homo sapiens, UniProt P21397).
T2 construct: purchased Sigma-Aldrich
T2 sequence (P21397 1-527): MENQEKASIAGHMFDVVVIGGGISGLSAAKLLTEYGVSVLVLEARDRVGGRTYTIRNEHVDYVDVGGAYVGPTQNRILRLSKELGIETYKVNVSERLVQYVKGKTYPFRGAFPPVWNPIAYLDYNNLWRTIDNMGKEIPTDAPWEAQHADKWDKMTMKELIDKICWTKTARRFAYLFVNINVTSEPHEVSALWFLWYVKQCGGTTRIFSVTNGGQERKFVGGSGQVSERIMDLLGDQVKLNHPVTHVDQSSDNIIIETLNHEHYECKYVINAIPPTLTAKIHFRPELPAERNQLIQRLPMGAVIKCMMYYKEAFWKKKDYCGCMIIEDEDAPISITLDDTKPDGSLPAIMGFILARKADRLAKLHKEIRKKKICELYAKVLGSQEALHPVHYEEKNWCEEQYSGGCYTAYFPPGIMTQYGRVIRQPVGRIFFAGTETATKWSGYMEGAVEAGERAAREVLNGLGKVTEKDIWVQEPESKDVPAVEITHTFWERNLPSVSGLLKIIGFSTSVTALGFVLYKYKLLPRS
As to the kind of experiment: Activity evaluation on recombinant human MAO-A (Amplex Red/HRP-coupled assay, 0.5 mM tyramine substrate). The settings on record: read-out: Inhibitory Activity (IC50, nM) MAO-A. Put shortly: (§1)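 Each oxidase is tested with its own substrate: MAO-A with 0.5 mM tyramine, MAO-B with 1 mM benzylamine, DAO with 1 mM putrescine. After 30 min enzyme-compound preincubation at 37 °C, Amplex Red (200 uM) plus HRP (1 U/mL) reports H2O2 as fluorescence; IC50 is fitted from eight-point curves.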

For assay [3], the target named is T3, recombinant human MAO-B (monoamine oxidase-B) (Homo sapiens, UniProt P27338).
T3 construct: purchased Sigma-Aldrich
T3 sequence (P27338 1-520): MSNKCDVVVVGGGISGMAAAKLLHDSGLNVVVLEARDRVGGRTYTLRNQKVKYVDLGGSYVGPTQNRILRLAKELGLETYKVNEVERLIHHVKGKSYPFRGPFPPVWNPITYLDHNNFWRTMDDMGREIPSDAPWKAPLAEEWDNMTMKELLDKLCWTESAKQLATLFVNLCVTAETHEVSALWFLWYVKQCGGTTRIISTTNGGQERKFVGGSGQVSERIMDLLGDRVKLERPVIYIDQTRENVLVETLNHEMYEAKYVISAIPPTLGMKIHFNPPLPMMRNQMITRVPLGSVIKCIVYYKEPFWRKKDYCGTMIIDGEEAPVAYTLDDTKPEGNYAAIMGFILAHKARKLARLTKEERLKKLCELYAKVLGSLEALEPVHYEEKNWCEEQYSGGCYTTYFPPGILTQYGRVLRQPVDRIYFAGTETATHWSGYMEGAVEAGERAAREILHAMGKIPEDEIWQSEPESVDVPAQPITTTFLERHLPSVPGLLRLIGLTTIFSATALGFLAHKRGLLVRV
Briefly: Activity evaluation on recombinant human MAO-B (Amplex Red/HRP-coupled assay, 1 mM benzylamine substrate). The settings on record: read-out: Inhibitory Activity (IC50, nM) MAO-B. A digest of the protocol: as §1

Assay [4] addresses T4, recombinant human DAO (diamine oxidase) (Homo sapiens, UniProt P19801).
T4 construct: purchased R&D systems
T4 sequence (P19801 20-751): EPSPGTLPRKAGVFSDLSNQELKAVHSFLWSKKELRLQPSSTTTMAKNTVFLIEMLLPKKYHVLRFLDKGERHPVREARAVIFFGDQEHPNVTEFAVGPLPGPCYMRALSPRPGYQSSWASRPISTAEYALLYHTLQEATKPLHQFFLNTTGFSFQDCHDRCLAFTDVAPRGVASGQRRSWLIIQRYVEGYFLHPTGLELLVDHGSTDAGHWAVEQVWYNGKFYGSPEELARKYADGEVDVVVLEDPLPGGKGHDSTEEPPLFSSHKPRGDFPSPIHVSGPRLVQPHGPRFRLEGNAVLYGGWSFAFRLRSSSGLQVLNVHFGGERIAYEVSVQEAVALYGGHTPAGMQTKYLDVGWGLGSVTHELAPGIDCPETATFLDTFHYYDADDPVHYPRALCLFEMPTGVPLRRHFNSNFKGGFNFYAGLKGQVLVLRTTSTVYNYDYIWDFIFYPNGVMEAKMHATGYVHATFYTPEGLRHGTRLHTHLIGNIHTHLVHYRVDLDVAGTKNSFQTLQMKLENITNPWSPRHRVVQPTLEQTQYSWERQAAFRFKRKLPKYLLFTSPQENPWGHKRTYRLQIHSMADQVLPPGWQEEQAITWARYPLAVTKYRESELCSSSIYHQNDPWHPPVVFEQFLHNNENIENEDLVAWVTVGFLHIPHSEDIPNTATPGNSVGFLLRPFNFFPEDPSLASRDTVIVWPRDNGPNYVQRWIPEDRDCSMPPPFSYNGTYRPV
Briefly: Activity evaluation on recombinant human DAO (Amplex Red/HRP-coupled assay, 1 mM putrescine substrate). The settings on record: read-out: Inhibitory Activity (IC50, nM) DAO. Put shortly:
as §1

The mark [5] stands for this setting: recombinant human VAP-1, benzylamine substrate.
[6] abbreviates: recombinant human VAP-1, 30 min preincubation at 37° C., 1 mM benzylamine.

On to `CS(=O)(=O)c1ccc(-c2ccc(Cn3cnn(CC(CN)=C(F)F)c3=O)cc2)cc1` [Example 265, 2-[2-(aminomethyl)-3,3-difluoro-allyl]-4-[[4-(4-methylsulfonylphenyl)phenyl]methyl]-1,2,4-triazol-3-one Trifluoroacetate], for which the IC50 (as a rule, the concentration at which inhibition is half-maximal) in assay [1] (setting [5]) is 1.4 nM; in assay [2] (0.5 mM tyramine substrate), greater than 100000 nM; in assay [3] (1 mM benzylamine substrate) it was greater than 100000 nM; in assay [4] (1 mM putrescine substrate), greater than 100000 nM.

For `CS(=O)(=O)c1ccc(-c2ccnc(-n3cnn(CC(CN)=C(F)F)c3=O)c2)cc1` [Example 54, 2-[2-(aminomethyl)-3,3-difluoro-allyl]-4-[4-(4-methylsulfonylphenyl)-2-pyridyl]-1,2,4-triazol-3-one Trifluoroacetate], the IC50 in assay [1] (setting [6]) is 4.9 nM; in assay [2] (0.5 mM tyramine) it was greater than 100000 nM; in assay [3] (1 mM benzylamine) it was greater than 100000 nM; in assay [4] (1 mM putrescine), 480 nM.

In the case of `CCn1cc(-c2ccc(Cn3cnn(CC(CN)=C(F)F)c3=O)cc2)cn1` [Example 264, 2-[2-(aminomethyl)-3,3-difluoro-allyl]-4-[[4-(1-ethylpyrazol-4-yl)phenyl]methyl]-1,2,4-triazol-3-one Trifluoroacetate], the half-maximal inhibitory concentration (IC50) in assay [1] (setting [5]) is 1.3 nM; in assay [2] (0.5 mM tyramine substrate) it was greater than 100000 nM; in assay [3] (1 mM benzylamine substrate), greater than 100000 nM; in assay [4] (1 mM putrescine substrate) it was greater than 100000 nM.

Consider `Cc1ccc(Br)nc1-n1cnn(CC(CN)=C(F)F)c1=O` [Example 15, 2-[2-(aminomethyl)-3,3-difluoro-allyl]-4-(6-bromo-3-methyl-2-pyridyl)-1,2,4-triazol-3-one Trifluoroacetate], for which the IC50 in assay [1] (setting [6]) is 3 nM; in assay [2] (0.5 mM tyramine), greater than 100000 nM; in assay [3] (1 mM benzylamine), greater than 100000 nM; in assay [4] (1 mM putrescine), greater than 100000 nM.

Consider `NCC(Cn1ncn(Cc2ccc(-c3cnn(CC4CC4)c3)s2)c1=O)=C(F)F` [Example 295, 2-[2-(aminomethyl)-3,3-difluoro-allyl]-4-[[5-[1-(cyclopropylmethyl)pyrazol-4-yl]-2-thienyl]methyl]-1,2,4-triazol-3-one Trifluoroacetate], for which the IC50 in assay [1] (setting [5]) is 0.3 nM; in assay [2] (0.5 mM tyramine substrate), greater than 100000 nM; in assay [3] (1 mM benzylamine substrate), greater than 100000 nM; in assay [4] (1 mM putrescine substrate), greater than 100000 nM.

With `NCC(Cn1ncn(-c2cccc(-c3ccc(C(F)(F)F)nc3)n2)c1=O)=C(F)F` [Example 48, 2-[2-(aminomethyl)-3,3-difluoro-allyl]-4-[6-[6-(trifluoromethyl)-3-pyridyl]-2-pyridyl]-1,2,4-triazol-3-one Trifluoroacetate], the 50% inhibitory concentration (IC50) was 1 nM in assay [1] (setting [6]), greater than 100000 nM in assay [2] (0.5 mM tyramine), 31000 nM in assay [3] (1 mM benzylamine) and 61 nM in assay [4] (1 mM putrescine).

On to `Cc1cc(-c2ccc(-n3cnn(CC(CN)=C(F)F)c3=O)c(F)c2)cc2c1NC(=O)CC2` [Example 36, 6-[4-[1-[2-(aminomethyl)-3,3-difluoro-allyl]-5-oxo-1,2,4-triazol-4-yl]-3-fluoro-phenyl]-8-methyl-3,4-dihydro-1H-quinolin-2-one Trifluoroacetate], for which the IC50 in assay [1] (setting [6]) was 0.1 nM; in assay [2] (0.5 mM tyramine), greater than 100000 nM; in assay [3] (1 mM benzylamine), 160 nM; in assay [4] (1 mM putrescine), 97 nM.

On to `CN1C(=O)CCc2cc(-c3cc(F)c(Cn4cnn(CC(CN)=C(F)F)c4=O)s3)ccc21` [Example 301, 6-[5-[[1-[2-(aminomethyl)-3,3-difluoro-allyl]-5-oxo-1,2,4-triazol-4-yl]methyl]-4-fluoro-2-thienyl]-1-methyl-3,4-dihydroquinolin-2-one trifluoroacetate], for which the IC50 in assay [1] (setting [5]) is 0.5 nM; in assay [2] (0.5 mM tyramine substrate) it was greater than 100000 nM; in assay [3] (1 mM benzylamine substrate), greater than 100000 nM; in assay [4] (1 mM putrescine substrate) it was 2680 nM.

As for `CS(=O)(=O)c1ccc(-c2csc(Cn3cnn(CC(CN)=C(F)F)c3=O)c2)cc1` [Example 146, 2-[2-(aminomethyl)-3,3-difluoro-allyl]-4-[[4-(4-methylsulfonylphenyl)-2-thienyl]methyl]-1,2,4-triazol-3-one Trifluoroacetate], the IC50 in assay [1] (setting [6]) is 1.1 nM; in assay [2] (0.5 mM tyramine) it was greater than 100000 nM; in assay [3] (1 mM benzylamine) it was 33000 nM; in assay [4] (1 mM putrescine), 9200 nM.
